Source: patent US20200079786A1, “ANALOGS OF […] AS SOLUBLE EPOXIDE HYDROLASE INHIBITORS” (UNIVERSITAT DE BARCELONA, priority 2015, published 2020)

Legend:
[1] = tested on: Huh-7 cells; test: Amelioration of palmitate-induced ER stress: ATF3, BiP and CHOP mRNA by real-time PCR; assay type: cell-based; conditions: palmitate 0.5 mM + inhibitor 1 μM, 48 h
Experimental: Huh-7 cells were maintained in a humid atmosphere of 5% CO2 at 37° C. in high glucose (25 mM) Dulbecco's modified Eagle's medium supplemented with 10% heat-inactivated fetal bovine serum, 1% of penicillin/streptomycin (10.000 units/mL of penicillin and 10.000 μg/mL of streptomycin) and 1% of amphotericin B (250 μg/mL).
Huh-7 cells were serum-starved overnight prior treatment. […] For RNA extraction, cells were pre-treated with the inhibitors (final concentration 1 μM) for 1 hour before treatment with palmitate (final concentration 0.5 mM) and inhibitors (final concentration 1 μM). For each condition, at least 3 replicates were performed. Following 48 hours of incubation, RNA were extracted as described below.
Total RNA in hepatocytes was harvested by TRIsure (Bioline) according to the manufacturer's instructions. The extracted RNA was dissolved in RNase-free water and concentrations of total RNA were quantified using a NanoDrop 2000c spectrophotometer (Thermo Scientific). First-stranded cDNA was synthesized from 0.5 μg total RNA (Life Technologies). […] The PCR reaction contained 10 ng of reverse-transcribed RNA, 2× IQ™ SYBRGreen Supermix (BioRad, Barcelona, Spain) and 900 nmol/L concentration of each primer. Optical primer amplification efficiency for each primer set was assessed and a dissociation protocol was carried out to assure a single PCR product. PCR assays were performed on a MiniOpticon™ Real-Time PCR system (BioRad). Thermal cycling conditions were as follows: activation of Taq DNA polymerase at 95° C. for 10 min, followed by 40 cycles of amplification at 95° C. for 15 sec and 60° C. for 1 min. The relative levels of specific mRNA were estimated from the value of the threshold cycle (Ct) of the real-time PCR adjusted by that of a housekeeping gene (GAPDH) through the formula […] (ΔCt=Gene of interest Ct-GAPDH Ct). Cf.

[2] = biological target: T1, CYP1A2 (Homo sapiens, UniProt P05177); test: Inhibition of human cytochrome P450 CYP1A2; assay type: in vitro ADME; conditions: human cytochrome P450 enzyme
T1 sequence (P05177 1-516): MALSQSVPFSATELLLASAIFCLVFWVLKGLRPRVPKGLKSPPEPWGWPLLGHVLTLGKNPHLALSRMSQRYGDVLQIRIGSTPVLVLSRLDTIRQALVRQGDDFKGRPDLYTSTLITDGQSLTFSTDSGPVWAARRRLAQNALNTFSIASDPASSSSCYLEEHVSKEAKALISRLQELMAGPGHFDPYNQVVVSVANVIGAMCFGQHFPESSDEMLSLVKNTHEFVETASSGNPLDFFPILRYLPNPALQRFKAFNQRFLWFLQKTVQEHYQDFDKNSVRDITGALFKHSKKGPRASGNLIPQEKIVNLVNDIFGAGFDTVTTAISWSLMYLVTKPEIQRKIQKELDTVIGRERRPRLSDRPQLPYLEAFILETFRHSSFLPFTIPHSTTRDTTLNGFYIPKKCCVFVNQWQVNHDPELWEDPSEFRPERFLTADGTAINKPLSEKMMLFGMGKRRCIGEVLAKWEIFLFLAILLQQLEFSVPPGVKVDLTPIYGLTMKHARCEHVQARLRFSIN
From the text: (§1) The epoxidation of arachidonic acid (AA) by selected cytochrome P450 epoxygenases generates epoxyeicosatrienoic acids (EETs). These EETs show anti-inflammatory, antihypertensive, analgesic, angiogenic, and antiatherosclerotic effects in rodents and humans. sEH converts EETs to their corresponding dihydroxyeicosatrienoic acids (DHETs), whereby the biological effects of EETs are diminished, eliminated, or altered. Among the P450 enzymes, it is known that CYP2C19 and CYP1A2 have the highest formation rate of EETs from AA (cf. A. A. El-Sherbeni et al. “Repurposing resveratrol and fluconazole to modulate human cytrochrome P450-mediated arachidonic acid metabolites”, Molecular Pharmaceutics 2016, vol. 13, pp. 1278-1288). For this reason, a highly desirable aspect of any new sEH inhibitor is selectivity in front of CYP2C19 and CYP1A2.

[3] = Determination of water solubility (nephelometry); assay type: physicochemical; conditions: aqueous with cosolvent or surfactant or cyclodextrin, kinetic from dmso stock; 5% DMSO: 95% PBS buffer, 37° C., read after 2 and 4 h; read-out: S (solubility)
[4] = biological target: CYP2C19 (Homo sapiens, UniProt P33261); test: Inhibition of human cytochrome P450 CYP2C19; assay type: in vitro ADME; conditions: human cytochrome P450 enzyme
From the text: as §1

Chain of CYP2C19 (P33261 whole entry): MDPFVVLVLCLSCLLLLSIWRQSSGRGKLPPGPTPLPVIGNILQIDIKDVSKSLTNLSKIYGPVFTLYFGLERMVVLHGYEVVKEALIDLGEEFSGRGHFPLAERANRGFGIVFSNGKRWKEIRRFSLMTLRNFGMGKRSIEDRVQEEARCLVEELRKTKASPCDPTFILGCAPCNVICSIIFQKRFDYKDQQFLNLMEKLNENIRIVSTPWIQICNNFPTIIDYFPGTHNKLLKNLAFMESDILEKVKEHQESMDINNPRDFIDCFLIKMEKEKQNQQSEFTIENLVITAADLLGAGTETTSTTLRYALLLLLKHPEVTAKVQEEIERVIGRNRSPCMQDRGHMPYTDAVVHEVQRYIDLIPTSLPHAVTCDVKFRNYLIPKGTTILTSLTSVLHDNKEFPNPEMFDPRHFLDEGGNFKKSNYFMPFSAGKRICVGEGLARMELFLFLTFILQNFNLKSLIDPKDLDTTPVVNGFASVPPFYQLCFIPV

## O=C(N[C@]12CC3C[C@@H](C[C@H](C3)O1)C2)N[C@H]1CC[C@H](Oc2ccc(C(=O)O)cc2)CC1 [Ig, trans-1-(2-oxaadamantan-1-yl)-3-[4-(4-carboxyphenoxy)cyclohexyl]urea]
[1]; control (CT) = 100.0, PAL alone 224.5
  Level of CHOP mRNA: 147.6 ± 15.9^(##)
[1]; control (CT) = 100.0, PAL alone 242.9
  Level of BiP mRNA: 174.9 ± 31.4^(#)
[1]; control (CT) = 100.0, PAL alone 585.5
  Level of ATF3 mRNA: 286.7 ± 59.9^(###)
[2]
  inhibition at 1 µM: ≤ 6%
[3]
  solubility: > 100 µM
[4]
  inhibition at 1 µM: ≤ 6%
